Measurements taken from patent US8980925B2, “Antimicrobial amphiphiles and methods for their use” (James Madison Innovations, Inc., priority 2010, dated 2015).

Experiments:
[1] = tested on: Escherichia coli ATCC® 25922™; experiment: Broth microdilution MIC and MBC, E. coli; type: cell-based; details: 37° C., 72 h, MBC and MIC values identical
Procedure: (§1) S. aureus and E. faecalis are Gram-positive pathogens, P. aeruginosa is a Gram-negative pathogen, and E. coli is a non-pathogenic Gram-negative organism.
(§2) The broth microdilution for determining the MIC and MBC of antimicrobial compounds was performed as previously described in Wayne, supra. Briefly, all compounds were serially diluted and 100 μl of each dilution was added to microtiter plate wells in triplicate. Overnight cultures of bacterial cells were diluted to a final inoculum of approximately 5×10^6 cfu/mL, and 100 μl of this suspension was added to all wells yielded 5×10^5 cfu/well. Cell concentrations and viability were verified by serial dilution and plating for each experiment. […] The MBC was determined as the lowest concentration of compound at which there were no colonies growing on the plate.
(§3) MIC values for the compounds of the invention were determined by the broth microdilution method as described herein. […] After microtiter plates were incubated and MICs determined, aliquots from each of the wells were placed on TSA plates and incubated to determine the MBC values for each of the compounds. The MBC was determined as the lowest concentration of compound at which there were no colonies growing on the plate. […] SDS was used for comparison in these studies.

[2] = tested on: Staphylococcus aureus subsp. aureus ATCC® 29213™; details: 100 μM of compound, […]10^6 cfu/ml, room temperature, up to 72 h
Description: (§4) Bacterial strains Staphylococcus aureus subsp. aureus ATCC® 29213™, Entercoccus faecalis ATCC® 29212™, Escherichia coli ATCC® 25922™, and Pseudomonas aeruginosa strain Boston 41501 ATCC® 27853™ were obtained from the American type Culture Collection (ATCC, Manassas, Va., USA). S. aureus and E. faecalis are Gram-positive pathogens, P. aeruginosa is a Gram-negative pathogen, and E. coli is a non-pathogenic Gram-negative organism. All strains are reference strains for the Clinical and Laboratory Standards Institute (CLSI) for antimicrobial susceptibility testing of nonfastidious bacteria, and were grown in Mueller-Hinton broth at 37° C. as recommended (Wayne, Pa. National Committee for Clinical Laboratory Standards (2009) Methods for Dilution Antimicrobial Tests for Bacteria That Grow Aerobically—Approved Standard M07-A8).
(§5) Compounds were added to the cultures to a final concentration of 100 μM, and tubes were incubated at room temperature. […] Data reported are times when no colonies were observed growing on plates after overnight incubation.

[3] = tested on: Escherichia coli ATCC® 25922™; details: 100 μM of compound; for time when all cells were killed, E. coli (G−): […]10^6 cfu/ml, room temperature, up to 72 h
Description: as §4, §5

[4] = tested on: Entercoccus faecalis ATCC® 29212™; details: 100 μM of compound, […]10^6 cfu/ml, room temperature, up to 72 h
Description: as §4, §5

[5] = tested on: Entercoccus faecalis ATCC® 29212™; experiment: Broth microdilution MIC and MBC, E. faecalis; type: cell-based; details: 37° C., 72 h, MBC and MIC values identical
Procedure: as §1, §2, §3

[6] = tested on: Pseudomonas aeruginosa strain Boston 41501 ATCC® 27853™; experiment: Broth microdilution MIC and MBC, P. aeruginosa; type: cell-based; details: 37° C., 72 h, MBC and MIC values identical
Procedure: as §1, §2, §3

[7] = tested on: Staphylococcus aureus subsp. aureus ATCC® 29213™; experiment: Broth microdilution MIC and MBC, S. aureus; type: cell-based; details: 37° C., 72 h, MBC and MIC values identical
Procedure: as §1, §2, §3

Compound | MICs and MBCs, E. coli (G−) [1] [µM] | time when all cells were killed, S. aureus (G+) [2] [h] | time necessary to kill […]10^6 cfu/mL, E. coli [3] [min] | time when all cells were killed, E. coli (G−) [3] [h] | time when all cells were killed, E. faecalis (G+) [4] [h] | MICs and MBCs, E. faecalis (G+) [5] [µM] | MICs and MBCs, P. aeruginosa (G−) [6] [µM] | MICs and MBCs, S. aureus (G+) [7] [µM]
1-hexadecyloxy-3,5-bis[(trimethlammonoum bromide)methyl]benzene [3,5-C16 (10)] | 63 | 0.25 | ≤ 15 | 0.25 | 0.25 | 31 | >63 | 16
1-tetradecyloxy-2,5-bis(4,4′-bipyridinium)benzene, bis-bromide salt [2,5-C14dipyr (41)] | 16 | – | – | – | – | 31 | 125 | 16
CCCCCCCCCCCCOS(=O)(=O)[O-].[Na+] [SDS (13), SDS, reference compound] | >500 | – | – | – | – | 500 | >500 | 250
[(2-tetradecyloxy-m-phenylene)dimethylene]bis[trimethylamonium bromide] [2,6-C14 (8)] | 125 | 48 | – | – | – | 50 | 500 | 16
[(2-tetradecyloxy-o-phenylene)dimethylene]bis[trimethylamonium bromide] [2,3-C14 (1)] | 63 | 1 | – | 0.5 | 24 | 31 | 125 | 6
[(5-tetradecyloxy-m-phenylene)dimethylene]bis[trimethylamonium bromide] [3,5-C14 (9)] | 31 | 1 | – | 1 | 1 | 31 | >63 | 8
[(6-tetradecyloxy-m-phenylene)dimethylene]bis[trimethylamonium bromide] [2,4-C14 (2)] | 31 | 1 | – | 1 | 2 | 16 | 125 | 6
